From US8088784B2, “4-(3-aminopyrazole) pyrimidine derivatives for use as tyrosine kinase inhibitors in the treatment of cancer” (AstraZeneca AB, priority 2005, dated 2012)

What was measured:
human JAK2 = target: T1, human JAK2 (Homo sapiens, UniProt O60674); experiment: JAK2 kinase Alphascreen assay; format: biochemical; conditions: recombinant human JAK2 (aa 808-end), 30uM ATP, 60 minutes, room temperature; read-out: JAK inhibitory activity IC50
T1 construct: human JAK2, amino acids 808-end; His6 (C); purchased Upstate Biotechnology 14-640; host or cells: baculovirus in Sf21 cells
T1 sequence (O60674 808-1132 limits assumed): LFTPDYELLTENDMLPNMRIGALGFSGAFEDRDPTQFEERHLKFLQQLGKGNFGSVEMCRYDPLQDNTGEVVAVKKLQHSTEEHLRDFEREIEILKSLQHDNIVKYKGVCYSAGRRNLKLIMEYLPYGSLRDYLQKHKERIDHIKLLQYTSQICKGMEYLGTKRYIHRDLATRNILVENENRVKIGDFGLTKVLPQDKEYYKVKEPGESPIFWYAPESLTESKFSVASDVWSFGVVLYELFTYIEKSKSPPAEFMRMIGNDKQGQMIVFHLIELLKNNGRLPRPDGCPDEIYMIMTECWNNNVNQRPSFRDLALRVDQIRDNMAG
Description: JAK2 kinase activity was measured for its ability to phosphorylate synthetic tyrosine residues within a generic polypeptide substrate using an Amplified Luminescent Proximity Assay (Alphascreen) technology (PerkinElmer, 549 Albany Street, Boston, Mass.).
To measure JAK2 kinase activity, commercially available purified enzyme, C-terminal His6-tagged, recombinant, human JAK2, amino acids 808-end, (Genbank Accession number NM 004972) expressed by baculovirus in Sf21 cells from Upstate Biotechnology #14-640 was used. After incubation of the kinase with a biotinylated substrate and adenosine triphosphate (ATP) for 60 minutes at room temperature, the kinase reaction was stopped by the addition of 30 mM ethylenediaminetetraacetic acid (EDTA). The reaction was performed in 384 well microtitre plates and the reaction products were detected with the addition of streptavidin coated Donor Beads and phosphotyrosine-specific antibodies coated Acceptor Beads using the EnVision Multilabel Plate Reader after an overnight incubation at room temperature.

human Trk A kinase = target: T2, human Trk A kinase (Homo sapiens, UniProt P04629); experiment: Trk A kinase Alphascreen assay; format: biochemical; conditions: HIS-tagged intracellular domain of human Trk A, 70 μM ATP, 20 minutes, room temperature; read-out: Trk inhibitory activity IC50
T2 construct: His; made in house; host or cells: SF9 insect cells
T2 sequence (P04629 442-796): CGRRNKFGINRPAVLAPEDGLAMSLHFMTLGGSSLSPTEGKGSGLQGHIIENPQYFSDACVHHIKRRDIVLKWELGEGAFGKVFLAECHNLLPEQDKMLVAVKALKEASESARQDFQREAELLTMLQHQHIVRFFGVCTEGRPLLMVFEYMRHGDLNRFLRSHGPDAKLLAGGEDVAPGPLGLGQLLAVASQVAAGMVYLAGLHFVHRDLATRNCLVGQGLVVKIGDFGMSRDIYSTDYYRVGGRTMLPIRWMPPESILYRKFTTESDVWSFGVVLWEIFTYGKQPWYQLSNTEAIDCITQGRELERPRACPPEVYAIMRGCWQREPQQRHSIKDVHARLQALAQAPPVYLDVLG
Description: Trk A kinase activity was measured for its ability to phosphorylate synthetic tyrosine residues within a generic polypeptide substrate using an Amplified Luminescent Proximity Assay (Alphascreen) technology (PerkinElmer, 549 Albany Street, Boston, Mass.).
To measure Trk A kinase activity, the intracellular domain of a HIS-tagged human Trk A kinase (amino acids 442-796 of Trk A, Swiss-Prot Primary Accession Number P04629) was expressed in SF9 cells and purified using standard nickel column chromatography. After incubation of the kinase with a biotinylated substrate and adenosine triphosphate (ATP) for 20 minutes at room temperature, the kinase reaction was stopped by the addition of 30 mM ethylenediaminetetraacetic acid (EDTA). The reaction was performed in 384 well microtitre plates and the reaction products were detected with the addition of strepavidin coated Donor Beads and phosphotyrosine-specific antibodies coated Acceptor Beads using the EnVision Multilabel Plate Reader after an overnight incubation at room temperature.

| Structure (SMILES) | IC50 (human JAK2) [nM] | IC50 (human Trk A kinase) [nM] |
| --- | --- | --- |
| COc1cc(Nc2nc(N[C@@H](C)c3ncc(F)cn3)ncc2Cl)n[nH]1 [Example 7, 5-Chloro-N^2-[(1S)-1-(5-fluoropyrimidin-2-yl)ethyl]-10-(5-methoxy-1H-pyrazol-3-yl)pyrimidine-2,4-diamine] | 3.9 |  |
| CC(C)Oc1cc(Nc2nc(NC(C)c3ncc(F)cn3)ncc2Cl)n[nH]1 (centres unmarked) [Example 1, 5-Chloro-N^4-(5-isopropoxy-1H-pyrazol-3-yl)-N^2-[1-(5-fluoropyrimidin-2-yl)ethyl]pyrimidine-2,4-diamine] |  | 33 |
